Laboratory results published in patent US5175266A, “Nucleosides and oligonucleosides with a phosphate-free internucleoside backbone and process for preparing the same” (Triplex Pharmaceutical Corporation, priority 1991, dated 1992).

Experiment: Chemical stability of the amide linkage (hydrolysis in NH4OH)
Type: physicochemical
Details: 30% NH4OH, 55° C., 24 h, assessed by TLC
Protocol: To assess the chemical stability of the amide linkages in the synthesized compounds, the monomer (6) (T'gly) was subjected to hydrolysis in 30% NH4 OH at 55° C. for 24 h. […] Thus, the amide bond appears to be stable with respect to general base catalyzed hydrolysis. From a practical perspective, this stability to 30% NH4 OH at 55° C. confirms that the amide linkage can withstand the hydrolysis required to remove base protecting groups which are necessary for polymerization of A,C and G homologues.

SMILES: Cc1cn([C@H]2C[C@H](N)[C@@H](C(=O)NCC(=O)O)O2)c(=O)[nH]c1=O [Compound 6, 1-(3-amino-2,3-dideoxy-β-D-erythro-pentofuranosyl-5-glycine uronate)thymine]
- hydrolysis of the amide linkage: no hydrolysis of the amide linkage was detected
